# According to ChEMBL document CHEMBL1145925, “Carbonic anhydrase inhibitors: inhibition of transmembrane, tumor-associated isozyme IX, and cytosolic isozymes I and II with aliphatic sulfamates” (J Med Chem, 2003):
# Several values for one entry are separate records, joined by “and”; a condition that tells them apart may be missing. Identical values can stand only once.
# Tests used:
# Carbonic anhydrase 2 = Carbonic anhydrase 2 (Homo sapiens, UniProt P00918)
# Carbonic anhydrase 1 = Carbonic anhydrase 1 (Homo sapiens, UniProt P00915)
# Carbonic anhydrase 9 = Carbonic anhydrase 9 (Homo sapiens, UniProt Q16790)
# Carbonic anhydrase 1, sequence (P00915 whole entry): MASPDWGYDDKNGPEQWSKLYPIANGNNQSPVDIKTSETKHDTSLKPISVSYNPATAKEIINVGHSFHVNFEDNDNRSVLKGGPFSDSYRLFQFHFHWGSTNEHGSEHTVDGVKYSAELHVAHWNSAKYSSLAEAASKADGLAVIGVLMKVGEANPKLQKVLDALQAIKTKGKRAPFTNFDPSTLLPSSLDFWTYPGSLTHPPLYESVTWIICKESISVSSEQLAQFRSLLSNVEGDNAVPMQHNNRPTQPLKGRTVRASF
Structure (SMILES),Ki (Carbonic anhydrase 2) [µM],Ki (Carbonic anhydrase 1) [µM],Ki (Carbonic anhydrase 9)
C#CCCOS(N)(=O)=O,5.9,990,0.633 µM
NS(=O)(=O)OCC1c2ccccc2-c2ccccc21,4.5,38,> 1 µM
NS(=O)(=O)OCC(F)(F)F,0.845,7.8,0.458 µM
Cc1ccc(COS(N)(=O)=O)cc1,0.0027,0.1,0.013 µM
NS(=O)(=O)OCCCCl,0.57,4.62,> 1 µM
C[C@]12CCC(OS(N)(=O)=O)CC1=C[C@@H](O)C1C2CC[C@]2(C)C(=O)CCC12 (stereo partly specified),0.013,0.4,0.065 µM
C=CCCOS(N)(=O)=O,0.883,800,0.386 µM
CC(C)CCC[C@@H](C)[C@H]1CCC2C3CC=C4C[C@@H](OS(N)(=O)=O)CC[C@]4(C)C3CCC21 (stereo partly specified),> 10,> 1000,> 1 µM
NS(=O)(=O)OC(C(F)(F)F)C(F)(F)F,1.58,3.54,0.279 µM
NS(=O)(=O)OCc1ccc(-c2ccccc2)cc1,,> 1000,> 1 µM
C[C@]12CCC(OS(N)(=O)=O)CC1=CC(=O)C1C2CC[C@]2(C)C(=O)CCC12 (stereo partly specified),0.023,0.41,0.076 µM
CCCCCCCCCCOS(N)(=O)=O [DECYL SULFAMATE],,,0.023 µM and 0.142 µM
NS(=O)(=O)OCc1ccccc1 [SULFAMIC ACID BENZYL ESTER],0.0034,0.76,0.014 µM
CCCCOS(N)(=O)=O [SULFAMIC ACID BUTYL ESTER],0.07,3.1,> 1 µM
NS(=O)(=O)OC1CCCCC1 [SULFAMIC ACID CYCLOHEXYL ESTER],0.06,59,> 1 µM
NS(=O)(=O)OC1CCCC1 [SULFAMIC ACID CYCLOPENTYL ESTER],> 10,> 1000,> 1 µM
CCCCCCCCCCCCOS(N)(=O)=O [SULFAMIC ACID DODECYL ESTER],0.01,0.27,0.009 µM
CCOS(N)(=O)=O [SULFAMIC ACID ETHYL ESTER],5.5,38,> 1 µM
CCCCCCCCCCCCCCCCOS(N)(=O)=O [SULFAMIC ACID HEXADECYL ESTER],0.097,58,
CC(C)OS(N)(=O)=O [SULFAMIC ACID ISOPROPYL ESTER],> 10,690,> 1 µM
COS(N)(=O)=O [SULFAMIC ACID METHYL ESTER],6,40,> 1 µM
CCCCCCCCCCCCCCCCCCOS(N)(=O)=O [SULFAMIC ACID OCTADECYL ESTER],0.129,65,0.12 µM
CCCCCOS(N)(=O)=O [SULFAMIC ACID PENTYL ESTER],0.058,0.71,
NS(=O)(=O)OCCc1ccccc1 [SULFAMIC ACID PHENETHYL ESTER],0.0011,0.41,0.012 µM
CCCOS(N)(=O)=O [SULFAMIC ACID PROPYL ESTER],0.75,3.7,> 1 µM
CCCCCCCCCCCCCCOS(N)(=O)=O [SULFAMIC ACID TETRADECYL ESTER],0.087,0.15,0.015 µM
CCCCCCCCCCCOS(N)(=O)=O [SULFAMIC ACID UNDECYL ESTER],0.0047,0.43,0.017 µM
